# Source: paper PMC8410669 (Neuropharmacology, 2021)
# Columns and labels:
# C57BL/6 mice = assay: Naloxone-precipitated opioid withdrawal paradigm; format: in vivo, mouse; conditions: morphine 10 mg/kg s.c. or oxycodone 3.5 mg/kg s.c. twice a day for 5 consecutive days
# female C57Bl/6 mice = assay: Respiratory and heart rate measurements; format: in vivo, mouse
# δ-opioid receptor (DOR) = conditions: ref Stanczyk et al., 2019; cited from earlier work
# [1] = ref Kandasamy et al., 2021; cited from earlier work
# MOR = conditions: ref Kandasamy et al., 2021; cited from earlier work
# [2] = high dose 30 mg/kg s.c., compared with vehicle
structure (smiles),measurement,setting,value
CN1CC[C@]23c4c5ccc(O)c4O[C@H]2[C@@H](O)C=C[C@H]3[C@H]1C5 [morphine],naloxone-precipitated withdrawal syndrome of the opioid,C57BL/6 mice,mild withdrawal syndrome
same,breathing rate (respiratory depression),female C57Bl/6 mice; [2],caused significant respiratory depression
same,heart rates,female C57Bl/6 mice; [2],decrease in heart rates
same,dose for respiratory depression relative to dose required for analgesia,female C57Bl/6 mice; mice,three to five times
Cc1ccccc1COc1ccc(C2C3=C(CC(C)(C)CC3=O)OC3=C2C(=O)CC(C)(C)C3)cc1 [BMS-986187],G protein activation vs β-arrestin recruitment,δ-opioid receptor (DOR),enhance G protein activation to a greater extent than β-arrestin recruitment
COc1ccc(C2SCCN2S(=O)(=O)c2ccc(Cl)cc2)cc1Br (centres unmarked) [BMS-986122],antinociception and side effects in vivo,[1],produces antinociception with reduced side effects
same,G protein activation vs β-arrestin recruitment,MOR,enhance G protein activation to a greater extent than β-arrestin recruitment
COc1ccc2c3c1O[C@H]1C(=O)CC[C@@]4(O)[C@@H](C2)N(C)CC[C@]314 [oxycodone],naloxone-precipitated withdrawal syndrome of the opioid,C57BL/6 mice,mild withdrawal syndrome
